Measurements: US6875451B2, “Compositions and methods for the treatment of primary and metastatic neoplastic diseases using arsenic compounds” (PolaRx Biopharmaceuticals Inc., priority 1997, dated 2005)

Tests used:
Assay type in all cases: cell-based
NCI-H522 = assay: SRB growth assay, 6 days exposure, non-small cell lung cancer; details: NCI-H522, 6 days
Description: (§1) Arsenic trioxide (1 mg/ml, 10 mg/ampoule, manufactured by Taylor Pharmaceuticals, Decatur, Ill.) was tested at five concentrations each at 10-fold dilutions, i.e., 10^−5, 10^−6, 10^−7, 10^−8 and 10^−9 μg/ml.
(§2) The in vitro tests were performed by incubating the test cells in the presence of the indicated concentration of arsenic trioxide under standard culture conditions for a designated period of time, which is followed by a sulforhodamine B (SRB) protein assay to estimate cell viability or growth. The cell lines are organized into subpanels according to the origin of the cell lines, e.g., leukemia, breast cancer, etc. A description of the cell lines and method of testing is described in Monk et al. (1997, Anticancer Drug Des. 12:533-41) and Weinstein et al., (1997, Science 275:343-9), which are incorporated herein in their entirety.
(§3) The measurement of an effect is expressed in Percentage Growth (PG). The measured effect of the compound on a cell line is calculated according to one or the other of the following two expressions: If (Mean ODtest−Mean ODzero)≧0. then PG=100×(Mean ODtest−Mean ODzero)/(Mean ODctrl−Mean ODzero) If (Mean ODtest−Mean ODzero)<0. then PG=100×(Mean ODtest−Mean ODzero)/(Mean ODzero where: • Mean ODzero=the average of optical density measurements of SRB-derived color just before exposure of cells to the test compounds; • Mean ODtest=the average of optical density measurements of SRB-derived color after exposure of cells to the test compound for a designated period of time; and • Mean ODctrl=the average of optical density measurements of SRB-derived color after with no exposure of cells to the test compound for a designated period of time
(§4) The first two columns describe the subpanel (e.g., leukemia) and cell line (e.g., CCRF-CEM) involved. The next two columns list the Mean ODzero and Mean ODctrl; the next five columns list the Mean ODtest for each of five different concentrations. Each concentration is expressed as the log10 (molar or μg/ml). The next five columns list the calculated PGs for each concentration. The response parameters GI50, TGI and LC50 are interpolated values representing the concentrations at which the PG is +50, 0, and −50, respectively. Sometimes these response parameters cannot be obtained by interpolation. If, for instance, all of the PGs in a given row exceed +50, then none of the three parameters can be obtained by interpolation. In such a case, the value given for each response parameter is the highest concentration tested and is preceded by a “>” sign. This practice is extended similarly to the other possible situations where a response parameter cannot be obtained by interpolation.
(§5) In the first set, the cells from 56 different cancer cell lines were exposed to five concentrations of arsenic trioxide continuously for two days prior to performing the SRB assay. In the second set, the cells from 50 different cell lines (a subset of the first 56 cell lines, plus the renal cancer cell line 786-0) were exposed continuously for six days prior to the SRB assay.

HOP-92 = assay: as above; details: HOP-92, 6 days
Description: as §1, §2, §3, §4, §5

NCI-H23 = assay: as above; details: NCI-H23, 6 days
Description: as §1, §2, §3, §4, §5

NCI-H322M = assay: as above
Description: as §1, §2, §3, §4, §5

EKVX = assay: as above
Description: as §1, §2, §3, §4, §5

NCI-H460 = assay: as above; details: NCI-H460, 6 days
Description: as §1, §2, §3, §4, §5

DU-145 = assay: SRB growth assay, 6 days exposure, prostate cancer; details: DU-145, 6 days
Description: as §1, §2, §3, §4, §5

[1] = read-out: LC50 (the source's name)

## arsenic trioxide
NCI-H522; Log 10 Concentration −4.9
  Mean Optical Densities: 0.028
  Percent Growth: −84%
NCI-H522; Log 10 Concentration −5.9
  Mean Optical Densities: 0.128
  Percent Growth: −27%
NCI-H522; Log 10 Concentration −6.9
  Mean Optical Densities: 1.191
  Percent Growth: 97%
NCI-H522; Log 10 Concentration −7.9
  Mean Optical Densities: 0.535
  Percent Growth: 34%
NCI-H522; Log 10 Concentration −8.9
  Mean Optical Densities: 1.269
  Percent Growth: 104%
HOP-92; Log 10 Concentration −4.9
  Mean Optical Densities: 0.079
  Percent Growth: −31%
HOP-92; Log 10 Concentration −5.9
  Mean Optical Densities: 1.229
  Percent Growth: 95%
HOP-92; Log 10 Concentration −6.9
  Mean Optical Densities: 1.319
  Percent Growth: 102%
HOP-92; Log 10 Concentration −7.9
  Mean Optical Densities: 1.834
  Percent Growth: 146%
HOP-92; Log 10 Concentration −8.9
  Mean Optical Densities: 1.455
  Percent Growth: 114%
HOP-92; [1]
  CC50: > 12.6 µM
NCI-H23; Log 10 Concentration −4.9
  Mean Optical Densities: 0.086
  Percent Growth: 1%
NCI-H23; Log 10 Concentration −5.9
  Mean Optical Densities: 1.303
  Percent Growth: 79%
NCI-H23; Log 10 Concentration −6.9
  Mean Optical Densities: 1.872
  Percent Growth: 116%
NCI-H23; Log 10 Concentration −7.9
  Mean Optical Densities: 1.814
  Percent Growth: 112%
NCI-H23; Log 10 Concentration −8.9
  Mean Optical Densities: 1.818
  Percent Growth: 113%
NCI-H23; [1]
  CC50: > 12.6 µM
NCI-H322M; Log 10 Concentration −4.9
  Mean Optical Densities: 0.054
  Percent Growth: 3%
NCI-H322M; Log 10 Concentration −5.9
  Mean Optical Densities: 0.552
  Percent Growth: 77%
NCI-H322M; Log 10 Concentration −6.9
  Mean Optical Densities: 0.674
  Percent Growth: 96%
NCI-H322M; Log 10 Concentration −7.9
  Mean Optical Densities: 0.620
  Percent Growth: 88%
NCI-H322M; Log 10 Concentration −8.9
  Mean Optical Densities: 0.680
  Percent Growth: 97%
NCI-H322M; [1]
  CC50: > 12.6 µM
EKVX
  TGI: 4.22E−06
EKVX; Log 10 Concentration −4.9
  Mean Optical Densities: 0.014
  Percent Growth: −53%
EKVX; Log 10 Concentration −5.9
  Mean Optical Densities: 0.414
  Percent Growth: 59%
EKVX; Log 10 Concentration −6.9
  Mean Optical Densities: 0.628
  Percent Growth: 92%
EKVX; Log 10 Concentration −7.9
  Mean Optical Densities: 0.601
  Percent Growth: 88%
EKVX; Log 10 Concentration −8.9
  Mean Optical Densities: 0.573
  Percent Growth: 83%
NCI-H460; Log 10 Concentration −4.9
  Mean Optical Densities: 0.062
  Percent Growth: 1%
NCI-H460; Log 10 Concentration −5.9
  Mean Optical Densities: 2.535
  Percent Growth: 89%
NCI-H460; Log 10 Concentration −6.9
  Mean Optical Densities: 2.792
  Percent Growth: 98%
NCI-H460; Log 10 Concentration −7.9
  Mean Optical Densities: 2.806
  Percent Growth: 99%
NCI-H460; Log 10 Concentration −8.9
  Mean Optical Densities: 2.797
  Percent Growth: 99%
NCI-H460; [1]
  CC50: > 12.6 µM
DU-145
  TGI: 6.32E−06
DU-145; Log 10 Concentration −4.9
  Mean Optical Densities: 0.055
  Percent Growth: −43%
DU-145; Log 10 Concentration −5.9
  Mean Optical Densities: 2.153
  Percent Growth: 100%
DU-145; Log 10 Concentration −6.9
  Mean Optical Densities: 1.935
  Percent Growth: 89%
DU-145; Log 10 Concentration −7.9
  Mean Optical Densities: 1.954
  Percent Growth: 90%
DU-145; Log 10 Concentration −8.9
  Mean Optical Densities: 2.147
  Percent Growth: 99%
DU-145; [1]
  CC50: > 12.6 µM
